How the values were obtained:
Conditions in all cases: human; call rule not given here
Hepatotoxicity [1] = assay: FDA HLAED, liver enzyme composite activity
Hepatotoxicity [2] = assay: FDA HLAED, alkaline phosphatase increase
Hepatotoxicity [3] = assay: FDA HLAED, lactate dehydrogenase (LDH) increase
Hepatotoxicity [4] = assay: FDA HLAED, gamma-glutamyl transferase (GGT) increase
Hepatotoxicity [5] = assay: FDA HLAED, serum glutamic oxaloacetic transaminase (SGOT) increase
Hepatotoxicity [6] = assay: FDA HLAED, serum glutamic pyruvic transaminase (SGPT) increase
Wherever GGT Increase - Index Value is given: reference of the scale not given here.
Wherever LDH Increase - Index Value is given: reference of the scale not given here.

Molecule | Composite Activity - Active (Hepatotoxicity [1]) | Composite Activity - Marginal (Hepatotoxicity [1]) | Composite Activity - Score (Hepatotoxicity [1]) | Alkaline Phosphatase Increase - Activity Score (Hepatotoxicity [2]) | Alkaline Phosphatase Increase - Index Value (Hepatotoxicity [2]) | Alkaline Phosphatase Increase - Number of Reports (Hepatotoxicity [2]) | LDH Increase - Activity Score (Hepatotoxicity [3]) | LDH Increase - Index Value (Hepatotoxicity [3]) | LDH Increase - Number of Reports (Hepatotoxicity [3]) | GGT Increase - Activity Score (Hepatotoxicity [4]) | GGT Increase - Index Value (Hepatotoxicity [4]) | GGT Increase - Number of Reports (Hepatotoxicity [4]) | SGOT Increase - Activity Score (Hepatotoxicity [5]) | SGOT Increase - Index Value (Hepatotoxicity [5]) | SGOT Increase - Number of Reports (Hepatotoxicity [5]) | SGPT Increase - Activity Score (Hepatotoxicity [6]) | SGPT Increase - Index Value (Hepatotoxicity [6]) | SGPT Increase - Number of Reports (Hepatotoxicity [6])
Cc1cc(CC(=O)O)n(C)c1C(=O)c1ccc(Cl)cc1 [ZOMEPIRAC] | 0 | 0 | Inactive | Inactive | 1.1 | >= 4 | Inactive | 0.7 | >= 4 | Inactive | 0 | < 4 | Inactive | 1.1 | >= 4 | Inactive | 0.7 | >= 4
NYSTATIN | 0 | 0 | Inactive | Inactive | 0.3 | < 4 | Inactive | 0 | < 4 | Inactive | 0 | < 4 | Inactive | 0 | < 4 | Inactive | 0 | < 4

Source: ChEMBL document CHEMBL1697781, “Assessment of the health effects of chemicals in humans: II. Construction of an adverse effects database for QSAR modeling” (Curr Drug Discov Technol, 2004)
